Assay results: PubChem BioAssay AID256 (DTP/NCI, 2004)
“And” between values parts separate entries of the source, which are not always exact repeats. Equal values may be shown once. Inconclusive results and toxic doses are left out. Rule for the calls: active = survival T/C of 150% or more; inactive = T/C below 125% in these data.

Tested on: CD2F1 mice, L1210 leukemia ip, survival T/C
Experiment: NCI In Vivo Anticancer Drug Screen. Data for tumor model L1210 Leukemia (intraperitoneal) in CD2F1 (CDF1) mice
Details: higher = longer survival
Method in brief: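 Mice carrying a transplanted tumor received test compound or vehicle alone. The value is the measurement in the treated group divided by that in the vehicle-treated control group.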

[1] = endpoint: mean survival time, dose: 100.0 mg/kg/injection, schedule: Q04DX003 (ip), vehicle: saline
[2] = endpoint: mean survival time, dose: 100.0 mg/kg/injection, schedule: Q04DX002 (ip), vehicle: saline with Tween-80
[3] = endpoint: mean survival time, dose: 100.0 mg/kg/injection, schedule: Q04DX003 (ip), vehicle: saline with Tween-80
[4] = endpoint: mean survival time, dose: 200.0 mg/kg/injection, schedule: Q04DX002 (ip), vehicle: saline with Tween-80
[5] = endpoint: mean survival time, dose: 200.0 mg/kg/injection, schedule: Q04DX003 (ip), vehicle: saline with Tween-80
[6] = endpoint: mean survival time, dose: 25.0 mg/kg/injection, schedule: Q04DX003 (ip), vehicle: saline with Tween-80
[7] = endpoint: mean survival time, dose: 100.0 mg/kg/injection, schedule: Q01DX009 (ip), vehicle: Klucel (hydroxypropylcellulose) (HPC)
[8] = endpoint: mean survival time, dose: 200.0 mg/kg/injection, schedule: Q01DX009 (ip), vehicle: Klucel (hydroxypropylcellulose) (HPC)
[9] = endpoint: mean survival time, dose: 50.0 mg/kg/injection, schedule: Q01DX009 (ip), vehicle: saline with Tween-80
[10] = endpoint: mean survival time, dose: 100.0 mg/kg/injection, schedule: Q01DX009 (ip), vehicle: saline with Tween-80
[11] = endpoint: mean survival time, dose: 200.0 mg/kg/injection, schedule: Q01DX009 (ip), vehicle: saline with Tween-80
[12] = endpoint: mean survival time, dose: 400.0 mg/kg/injection, schedule: Q04DX003 (ip), vehicle: saline with Tween-80
[13] = endpoint: mean survival time, dose: 100.0 mg/kg/injection, schedule: Q01DX009 (ip), vehicle: saline
[14] = endpoint: mean survival time, dose: 200.0 mg/kg/injection, schedule: Q01DX009 (ip), vehicle: saline
[15] = endpoint: mean survival time, dose: 400.0 mg/kg/injection, schedule: Q01DX009 (ip), vehicle: saline
[16] = endpoint: mean survival time, dose: 400.0 mg/kg/injection, schedule: Q01DX009 (ip), vehicle: saline with Tween-80

Measured: T/C

COc1ccc(/C=C2/C=C(c3ccccc3)OC2=O)cc1
inactive: [1] 98 % of control | endpoint: mean survival time, dose: 200.0 mg/kg/injection, schedule: Q04DX003 (ip), vehicle: saline 101 % of control | endpoint: mean survival time, dose: 400.0 mg/kg/injection, schedule: Q04DX003 (ip), vehicle: saline 98 % of control

CC(C)COC(=N)c1ccccc1C1(O)CCCCC1
inactive: endpoint: mean survival time, dose: 50.0 mg/kg/injection, schedule: Q04DX002 (ip), vehicle: saline with Tween-80 91 % of control | [2] 88 % of control | [3] 98 % of control | [4] 100 % of control | [5] 92 % of control

COc1ccc2c(c1OC(C)=O)-c1cc(OC(C)=O)cc3c1C(C2)NCC3 (stereo not given)
inactive: endpoint: mean survival time, dose: 3.13 mg/kg/injection, schedule: Q04DX003 (ip), vehicle: saline with Tween-80 96 % of control | endpoint: mean survival time, dose: 6.25 mg/kg/injection, schedule: Q04DX003 (ip), vehicle: saline with Tween-80 94 % of control | endpoint: mean survival time, dose: 12.5 mg/kg/injection, schedule: Q04DX003 (ip), vehicle: saline with Tween-80 94 % of control | [6] 94 % of control

COc1ccc(NC(=O)N(CCO)c2ccccc2)c(Cl)c1
inactive: endpoint: mean survival time, dose: 50.0 mg/kg/injection, schedule: Q01DX009 (ip), vehicle: Klucel (hydroxypropylcellulose) (HPC) 107 % of control | [7] 104 % of control | [8] 107 % of control

C/C=C/CC1CCCCC1
inactive: [9] 100 % of control | [10] 100 % of control | [11] 100 % of control

CC(C)(C)C(=O)CC(=O)C(C)(C)C
inactive: [3] 95 % of control and 94 % of control | [5] 91 % of control and 100 % of control | [12] 95 % of control

O=[N+]([O-])c1ccc(N/N=C2/CCSc3ccccc32)cc1
inactive: [13] 102 % of control | [14] 101 % of control | [15] 95 % of control

CC(=O)CC(C)=Nc1ccc([N+](=O)[O-])cc1
inactive: [10] 90 % of control | [11] 93 % of control | [16] 90 % of control

O=C(NC1CCc2ccccc21)c1ccccc1 (stereo not given)
inactive: [3] 96 % of control | [5] 94 % of control | [16] 87 % of control | [12] 97 % of control

C#CC1(NC(=O)NC(C)(C)C)CCCCC1
inactive: [10] 93 % of control | [11] 86 % of control

Cc1ccn(C)c(=N)c1
inactive: endpoint: mean survival time, dose: 100.0 mg/kg/injection, schedule: Q01DX009 (ip), vehicle: saline sonified 97 % of control | [3] 94 % of control | endpoint: mean survival time, dose: 200.0 mg/kg/injection, schedule: Q01DX009 (ip), vehicle: saline sonified 98 % of control | [5] 93 % of control | [12] 93 % of control

C[N+]12CCC34C5=CC(=O)C(=O)C=C5[N+]5(C)C(=O)CC6OCC=C(C1)C(CC32)C6C45 (stereo not given)
inactive: endpoint: mean survival time, dose: 75.0 mg/kg/injection, schedule: Q01DX001 (ip), vehicle: saline 106 % of control

CC1(C)C(=O)OC(n2ccc(=O)[nH]c2=O)C1=O (stereo not given)
inactive: endpoint: median survival time, dose: 12.5 mg/kg/injection, schedule: Q01DX005 (ip), vehicle: saline 103 % of control | endpoint: median survival time, dose: 25.0 mg/kg/injection, schedule: Q01DX005 (ip), vehicle: saline 103 % of control | endpoint: median survival time, dose: 50.0 mg/kg/injection, schedule: Q01DX005 (ip), vehicle: saline 101 % of control | endpoint: median survival time, dose: 100.0 mg/kg/injection, schedule: Q01DX005 (ip), vehicle: saline 103 % of control | endpoint: median survival time, dose: 200.0 mg/kg/injection, schedule: Q01DX005 (ip), vehicle: saline 103 % of control

COC1C(C)OC(OC2CC(C)(O)C(C(=O)O)c3cc4c(c(O)c32)C(=O)c2c(O)cc3c(c2C4=O)OC2OC3(C)C(O)C(N(C)C)C2O)C(OC)C1(C)OC (stereo not given)
inactive: endpoint: mean survival time, dose: 5.0 mg/kg/injection, schedule: Q01DX009 (ip), vehicle: other 113 % of control | endpoint: mean survival time, dose: 10.0 mg/kg/injection, schedule: Q01DX009 (ip), vehicle: other 107 % of control | endpoint: mean survival time, dose: 10.0 mg/kg/injection, schedule: Q04DX003 (ip), vehicle: other 113 % of control | endpoint: mean survival time, dose: 20.0 mg/kg/injection, schedule: Q01DX009 (ip), vehicle: other 118 % of control | endpoint: mean survival time, dose: 20.0 mg/kg/injection, schedule: Q04DX003 (ip), vehicle: other 113 % of control | endpoint: mean survival time, dose: 40.0 mg/kg/injection, schedule: Q04DX003 (ip), vehicle: other 117 % of control | endpoint: mean survival time, dose: 80.0 mg/kg/injection, schedule: Q04DX003 (ip), vehicle: other 115 % of control

Nc1ccc2cc(Cl)ccc2c1
inactive: [9] 103 % of control | [10] 105 % of control | [3] 95 % of control | [5] 95 % of control

CCOC(=O)NCCCNC(=O)OCC
inactive: [13] 104 % of control | [14] 95 % of control | [15] 93 % of control

Cc1ccc(NC(=O)c2ccccc2)c(C)c1
inactive: [10] 90 % of control | [3] 92 % of control | [11] 86 % of control | [5] 92 % of control | [12] 92 % of control

C=C1C[C@@H](O)[C@H](O)[C@@]2(C)C[C@@H]3OC(=O)C(=C)[C@@H]3C[C@H]12
inactive: [10] 102 % of control

NC(=S)N/N=C/c1cc(=O)c2cc(Cl)ccc2o1
inactive: endpoint: median survival time, dose: 75.0 mg/kg/injection, schedule: Q01DX005 (ip), vehicle: DMSO 95 % of control | endpoint: median survival time, dose: 150.0 mg/kg/injection, schedule: Q01DX005 (ip), vehicle: DMSO 98 % of control | endpoint: median survival time, dose: 300.0 mg/kg/injection, schedule: Q01DX005 (ip), vehicle: DMSO 97 % of control | endpoint: median survival time, dose: 600.0 mg/kg/injection, schedule: Q01DX005 (ip), vehicle: DMSO 96 % of control | endpoint: median survival time, dose: 1200.0 mg/kg/injection, schedule: Q01DX005 (ip), vehicle: DMSO 104 % of control

O=C1NC(=O)c2ccccc21
inactive: [7] 102 % of control | [8] 106 % of control | endpoint: mean survival time, dose: 400.0 mg/kg/injection, schedule: Q01DX009 (ip), vehicle: Klucel (hydroxypropylcellulose) (HPC) 101 % of control

COC(=O)C1CCC(C(=O)O)CC1 (stereo not given)
inactive: [10] 92 % of control | [3] 101 % of control | [11] 94 % of control | [5] 97 % of control | [16] 89 % of control | [12] 95 % of control

CC(=O)C(C(C)=O)c1ccc([N+](=O)[O-])cc1[N+](=O)[O-].CC(=O)C(C(C)=O)c1ccc([N+](=O)[O-])cc1[N+](=O)[O-].[Cu]
inactive: endpoint: median survival time, dose: 50.0 mg/kg/injection, schedule: Q04DX002 (ip), vehicle: saline with Tween-80 88 % of control | endpoint: median survival time, dose: 100.0 mg/kg/injection, schedule: Q04DX002 (ip), vehicle: saline with Tween-80 88 % of control | endpoint: median survival time, dose: 400.0 mg/kg/injection, schedule: Q04DX002 (ip), vehicle: saline with Tween-80 88 % of control

CN(C)CCSCC(=O)N1c2ccccc2Sc2ccccc21
inactive: [1] 96 % of control

O=C=NC(c1ccccc1)(c1ccccc1)c1ccccc1
inactive: [3] 95 % of control and 99 % of control | [5] 103 % of control and 104 % of control | [12] 97 % of control

CS(=O)(=O)OC[C@@H](O)[C@@H](O)COS(C)(=O)=O
inactive: endpoint: mean survival time, dose: 100.0 mg/kg/injection, schedule: Q04DX003 (ip), vehicle: saline sonified 94 % of control and 102 % of control | endpoint: mean survival time, dose: 200.0 mg/kg/injection, schedule: Q04DX003 (ip), vehicle: saline sonified 100 % of control and 108 % of control | endpoint: mean survival time, dose: 400.0 mg/kg/injection, schedule: Q04DX003 (ip), vehicle: saline sonified 97 % of control and 100 % of control

Cc1ccc(Cl)cc1NC(=S)NC(=O)COc1ccccc1
inactive: endpoint: mean survival time, dose: 12.5 mg/kg/injection, schedule: Q01DX009 (ip), vehicle: saline with Tween-80 98 % of control and 106 % of control | endpoint: mean survival time, dose: 25.0 mg/kg/injection, schedule: Q01DX009 (ip), vehicle: saline with Tween-80 98 % of control | [6] 100 % of control | endpoint: mean survival time, dose: 50.0 mg/kg/injection, schedule: Q01DX001 (ip), vehicle: saline with Tween-80 97 % of control | endpoint: mean survival time, dose: 50.0 mg/kg/injection, schedule: Q04DX003 (ip), vehicle: saline with Tween-80 96 % of control | endpoint: mean survival time, dose: 100.0 mg/kg/injection, schedule: Q01DX001 (ip), vehicle: saline with Tween-80 89 % of control | [2] 87 % of control | [3] 90 % of control | endpoint: mean survival time, dose: 200.0 mg/kg/injection, schedule: Q01DX001 (ip), vehicle: saline with Tween-80 88 % of control | [4] 98 % of control

O=C1C=C(c2ccccc2)C(O)(c2ccccc2)C1 (stereo not given)
inactive: [9] 89 % of control | [10] 104 % of control | [11] 89 % of control

NC(=O)c1csc(CSCCO)n1
inactive: endpoint: median survival time, dose: 41.75 mg/kg/injection, schedule: Q01DX005 (ip), vehicle: saline 103 % of control | endpoint: median survival time, dose: 83.5 mg/kg/injection, schedule: Q01DX005 (ip), vehicle: saline 104 % of control | endpoint: median survival time, dose: 167.0 mg/kg/injection, schedule: Q01DX005 (ip), vehicle: saline 102 % of control | endpoint: median survival time, dose: 334.0 mg/kg/injection, schedule: Q01DX005 (ip), vehicle: saline 98 % of control
